Assays:
[1] = Pharmacokinetic test, intravenous solution and liposome formulations in mice (Experimental Example 6); format: in vivo; details: female BALB/c mice
Outline: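 Solution or liposome formulation (ammonium sulfate-loaded HSPC/cholesterol/PEG-lipid liposomes, outer buffer 10 mM tartrate/10% sucrose pH 4) given IV to 7-week-old female BALB/c mice. Jugular blood sampled without anesthesia up to 24 h (solution) or 72 h (liposome); test compound and Alvocidib in plasma measured by LC-MS/MS.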

[2] = Evaluation of conversion rate to active form in buffer solution (Experimental Example 1); format: physicochemical; details: for Production rate of Alvocidib / Residual rate: 37° C., 25 umol/L in buffer solution
Outline: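 Conversion to Alvocidib was followed by HPLC over 3 hours at 37° C, with test compounds at 25 umol/L in 50 mM citrate or phosphate buffers spanning pH 5.0–7.4.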

CN1CC[C@H](c2c(OC(=O)N(C)C[C@H]3CCCCN3)cc(O)c3c(=O)cc(-c4ccccc4Cl)oc23)[C@H](O)C1 [Example 4, 2-(2-chlorophenyl)-5-hydroxy-8-[(3S,4R)-3-hydroxy-1-methylpiperidin-4-yl]-4-oxo-4H-1-benzopyran-7-yl methyl{[(2R)-piperidin-2-yl]methyl}carbamate]
Blood retention of liposome formulation compared with the corresponding solution formulation [1]: higher blood retention | Production rate of Alvocidib ([2]; pH5.0, 0 hr): 0.5% | Residual rate ([2]; pH5.0, 0 hr): 99.3% | Stability in buffer solution at pH 5 ([2]; pH 5, 37° C., up to 2 or 3 hours): stable | Production rate of Alvocidib ([2]; pH5.0, 0.5 hr): 0.8% | Residual rate ([2]; pH5.0, 0.5 hr): 98.5% | Production rate of Alvocidib ([2]; pH5.0, 1 hr): 1.1% | Residual rate ([2]; pH5.0, 1 hr): 98.0% | Production rate of Alvocidib ([2]; pH5.0, 2 hr): 1.7% | Residual rate ([2]; pH5.0, 2 hr): 96.8% | Production rate of Alvocidib ([2]; pH5.0, 3 hr): 2.3% | Residual rate ([2]; pH5.0, 3 hr): 95.6% | Production rate of Alvocidib ([2]; pH5.5, 0 hr): 0.4% | Residual rate ([2]; pH5.5, 0 hr): 99.2% | Production rate of Alvocidib ([2]; pH5.5, 0.5 hr): 1.5% | Residual rate ([2]; pH5.5, 0.5 hr): 97.1% | Production rate of Alvocidib ([2]; pH5.5, 1 hr): 2.2% | Residual rate ([2]; pH5.5, 1 hr): 95.5% | Production rate of Alvocidib ([2]; pH5.5, 2 hr): 4.0% | Residual rate ([2]; pH5.5, 2 hr): 91.4% | Production rate of Alvocidib ([2]; pH5.5, 3 hr): 5.5% | Residual rate ([2]; pH5.5, 3 hr): 87.9% | Production rate of Alvocidib ([2]; pH6.0, 0 hr): 0.4% | Residual rate ([2]; pH6.0, 0 hr): 99.3% | Production rate of Alvocidib ([2]; pH6.0, 0.5 hr): 3.7% | Residual rate ([2]; pH6.0, 0.5 hr): 91.9% | Production rate of Alvocidib ([2]; pH6.0, 1 hr): 6.4% | Residual rate ([2]; pH6.0, 1 hr): 85.6% | Production rate of Alvocidib ([2]; pH6.0, 2 hr): 12.0% | Residual rate ([2]; pH6.0, 2 hr): 72.4% | Production rate of Alvocidib ([2]; pH6.0, 3 hr): 16.6% | Residual rate ([2]; pH6.0, 3 hr): 61.7% | Production rate of Alvocidib ([2]; pH6.5, 0 hr): 0.5% | Residual rate ([2]; pH6.5, 0 hr): 99.3% | Production rate of Alvocidib ([2]; pH6.5, 0.5 hr): 9.0% | Residual rate ([2]; pH6.5, 0.5 hr): 79.5% | Production rate of Alvocidib ([2]; pH6.5, 1 hr): 15.1% | Residual rate ([2]; pH6.5, 1 hr): 65.1% | Production rate of Alvocidib ([2]; pH6.5, 2 hr): 26.1% | Residual rate ([2]; pH6.5, 2 hr): 39.7% | Production rate of Alvocidib ([2]; pH6.5, 3 hr): 32.7% | Residual rate ([2]; pH6.5, 3 hr): 24.9% | Production rate of Alvocidib ([2]; pH7.0, 0 hr): 0.6% | Residual rate ([2]; pH7.0, 0 hr): 98.8% | Production rate of Alvocidib ([2]; pH7.0, 0.5 hr): 21.3% | Residual rate ([2]; pH7.0, 0.5 hr): 51.3% | Production rate of Alvocidib ([2]; pH7.0, 1 hr): 31.6% | Residual rate ([2]; pH7.0, 1 hr): 27.7% | Production rate of Alvocidib ([2]; pH7.0, 2 hr): 41.1% | Residual rate ([2]; pH7.0, 2 hr): 0.0% | Production rate of Alvocidib ([2]; pH7.0, 3 hr): 43.3% | Residual rate ([2]; pH7.0, 3 hr): 0.0% | Production rate of Alvocidib ([2]; pH7.4, 0 hr): 0.8% | Residual rate ([2]; pH7.4, 0 hr): 98.4% | Conversion to Alvocidib at pH 7.4 ([2]; pH 7.4, 37° C., up to 3 hours): rapidly converted to Alvocidib | Production rate of Alvocidib ([2]; pH7.4, 0.5 hr): 34.8% | Residual rate ([2]; pH7.4, 0.5 hr): 21.5% | Production rate of Alvocidib ([2]; pH7.4, 1 hr): 42.0% | Residual rate ([2]; pH7.4, 1 hr): 0.0% | Production rate of Alvocidib ([2]; pH7.4, 2 hr): 44.6% | Residual rate ([2]; pH7.4, 2 hr): 0.0% | Production rate of Alvocidib ([2]; pH7.4, 3 hr): 44.6% | Residual rate ([2]; pH7.4, 3 hr): 0.0%

From patent publication US12617779B2, “Self degradation-type CDK9 inhibitor prodrug and liposome encapsulating same” (Sumitomo Pharma Co., Ltd., priority 2021, dated 2026)
